Reference: BindingDB's records for doi:10.1016/S0960-894X(98)00531-9 (Glaxo Wellcome Research and Development, 1999)

Target: T1, Chymotrypsin-C (Homo sapiens, UniProt Q99895)
T1 sequence (Q99895 whole entry): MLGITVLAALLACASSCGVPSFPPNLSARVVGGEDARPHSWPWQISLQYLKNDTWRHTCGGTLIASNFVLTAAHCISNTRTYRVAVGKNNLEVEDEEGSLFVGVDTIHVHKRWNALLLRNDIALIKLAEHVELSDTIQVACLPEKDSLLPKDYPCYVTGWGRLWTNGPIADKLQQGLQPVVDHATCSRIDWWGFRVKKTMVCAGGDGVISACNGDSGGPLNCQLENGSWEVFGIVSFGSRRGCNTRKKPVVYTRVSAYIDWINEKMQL
Assay: ChEBML_49751
Experimental: Compound was evaluated for the inhibition of Chymotrypsinogen

| IC50 [µM] | Compound |
| --- | --- |
| > 100 | N=C(N)c1ccc(C[C@H]2C(=O)O[C@H]3CCC[C@@H]32)cc1 [4-((3R,3aR,6aS)-2-Oxo-hexahydro-cyclopenta[b]furan-3-ylmethyl)-benzamidine; compound with acetic acid] |

Target: not listed separately
Assay: Compound was evaluated for the inhibition of Chymotrypsinogen

| IC50 [µM] | Compound |
| --- | --- |
| > 100 | N=C(N)CCCC[C@H]1C(=O)O[C@H]2CCC[C@@H]21 |
| > 100 | N=C(N)c1cccc(C[C@H]2C(=O)O[C@H]3CCC[C@@H]32)c1 [3-((3R,3aR,6aS)-2-Oxo-hexahydro-cyclopenta[b]furan-3-ylmethyl)-benzamidine; compound with acetic acid] |
| > 100 | O=C1O[C@H]2CCC[C@@H]2[C@H]1Cc1ccccc1 [(3R,3aR,6aS)-3-Benzyl-hexahydro-cyclopenta[b]furan-2-one] |
| > 0.1 | O=C1O[C@H]2CCC[C@@H]2[C@H]1Sc1ccccc1 [(3R,3aS,6aS)-3-Phenylsulfanyl-hexahydro-cyclopenta[b]furan-2-one] |
| > 100 | CC(C)=CC(=O)C[C@@H]1C(=O)O[C@H]2CCC[C@@H]21 [(3S,3aR,6aS)-3-(4-Methyl-2-oxo-pent-3-enyl)-hexahydro-cyclopenta[b]furan-2-one] |
| > 100 | O=C1O[C@H]2CCC[C@@H]2[C@@H]1Cc1ccccc1 [(3S,3aR,6aS)-3-Benzyl-hexahydro-cyclopenta[b]furan-2-one] |
| > 100 | O=C1O[C@H]2CCC[C@@H]2[C@@H]1Sc1ccccc1 [(3S,3aS,6aS)-3-Phenylsulfanyl-hexahydro-cyclopenta[b]furan-2-one] |
